Key:
[1] = test system: L. (L.) infantum promastigotes; test: In vitro activity on L. (L.) infantum promastigotes, counting viable parasites; assay type: cell-based, Leishmania (Leishmania) infantum; conditions: for IC50: Leishmania infantum, 72 h, 28 °C, read-out: L. (L) infantum promastigotes IC50 ± SD; for L. (L) infantum promastigotes SI: selectivity index CC50/IC50
Experimental: (§1) Epimastigotes of T. cruzi and promastigotes forms of L. […] The inhibition of parasite growth was microscopically determined by counting viable (live) parasites in a haemocytometer using yellow eosin as vital dye; live parasites (uncolored) and dead (orange) were counted. All of the experiments were performed with parasites in their logarithmic phase of growth. […] Negative controls were used without the drug (culture medium alone) in each experiment. […] The data were calculated by linear regression using the software ([…]; GO Business Solution, Guildford, UK). The selectivity index (SI) was calculated dividing CC50/IC50. Each experiment was repeated twice and the values represent the results of one representative experiment. […] The analysis to determine the statistical differences in biological activity was performed using the analysis of variance (ANOVA) and the Bonferroni post-test. We also performed Student's t test for comparison between the two variables, using GraphPad Prism software version 5.03.

[2] = Mammalian cell toxicity, MTT, Vero cells; assay type: cell-based; conditions: African green monkey, Vero cells, 72 h, MTT; read-out: Mammalian cells Vero CC50 ± SD
Experimental: (§2) Vero cells and THP-1 cells transformed into adherent macrophages with PMA in 96 microwell plates where they were treated with compounds (0-350 μM) during 72 h at 37 °C, 5% CO2-95% air mixture. The viability of the cells was evaluated by using the tetrazolium-dye (MTT) colorimetric method. After incubation of the cells with the MTT (5mg/mL) reagent for 4 hours, DMSO was added. The samples were read using an ELISA plate reader at a wavelength of 580 nm. The amount of color produced is directly proportional to the number of viable cells. The percentage of cytotoxicity was calculated by the equation: cytotoxicity (%) = (OD control group-OD treatment group)/OD control group × 100 [31]. […] The data were calculated by linear regression using the software ([…]; GO Business Solution, Guildford, UK). The selectivity index (SI) was calculated dividing CC50/IC50. Each experiment was repeated twice and the values represent the results of one representative experiment. […] The analysis to determine the statistical differences in biological activity was performed using the analysis of variance (ANOVA) and the Bonferroni post-test. We also performed Student's t test for comparison between the two variables, using GraphPad Prism software version 5.03.

T. cruzi epimastigotes = test: In vitro activity on T. cruzi epimastigotes, counting viable parasites; assay type: cell-based, Trypanosoma cruzi; conditions: for IC50: Trypanosoma cruzi, 72 h, 28 °C, read-out: T. cruzi epimastigotes IC50 ± SD; for T. cruzi epimastigotes SI: selectivity index CC50/IC50
Experimental: as §1

[3] = Mammalian cell toxicity, MTT, THP-1 cells; assay type: cell-based; conditions: human, THP-1 cells transformed into adherent macrophages with PMA; 72 h, MTT; read-out: Mammalian cells THP-1 CC50 ± SD
Experimental: as §2

[4] = test system: L.(V.) panamensis intracellular amastigotes; test: Intracellular amastigotes of L. (V.) panamensis in THP-1 macrophages; assay type: cell-based, Leishmania (Viannia) panamensis
Experimental: (§3) For the amastigotes assays, adherent Vero cells or THP-1 macrophages (after transformation with 10 ng/mL PMA) were infected with tissue-derived trypomastigotes or stationary phase promastigotes, respectively, at a ratio of 10:1 and maintained in a 5% CO2-95% air mixture at 37 °C. After 24 h, infected cultures with >50% of infected cells were incubated with the compounds (from 3–300 μM) in a three-fold dilution series for 72 h. Drug activity was determined from the % of infected cells in treated and untreated cultures in fixed methanol and Giemsa stained preparations. Parasites’ assays were performed twice and each tested concentration was tested in triplicate.
(§4) Negative controls were used without the drug (culture medium alone) in each experiment.
(§5) The data were calculated by linear regression using the software (Msxlfit; GO Business Solution, Guildford, UK). The selectivity index (SI) was calculated dividing CC50/IC50. Each experiment was repeated twice and the values represent the results of one representative experiment. […] The analysis to determine the statistical differences in biological activity was performed using the analysis of variance (ANOVA) and the Bonferroni post-test. We also performed Student’s t test for comparison between the two variables, using GraphPad Prism software version 5.03. P values <0.05 were considered to be statistically significant.

[5] = test system: L. (L.) amazonensis intracellular amastigotes; test: Intracellular amastigotes of L. (L.) amazonensis in THP-1 macrophages; assay type: cell-based, Leishmania (Leishmania) amazonensis
Experimental: as §3, §4, §5

[6] = test system: L. (L.) infantum intracellular amastigotes; test: Intracellular amastigotes of L. (L.) infantum infecting THP-1 macrophages; assay type: cell-based, Leishmania (Leishmania) infantum
Experimental: as §3, §4, §5

[7] = test system: T. cruzi intracellular amastigotes; test: Intracellular amastigotes of T. cruzi in Vero cells; assay type: cell-based, Trypanosoma cruzi
Experimental: as §3, §4, §5

c1ccc(CNCCCNCc2ccccc2)cc1 [5b]
IC50 [1]: 1.96 ± 0.07 µM
L. (L) infantum promastigotes SI [1]: 86.29
CC50 at 72 h [2]: 343 ± 29.4 µM
IC50 (T. cruzi epimastigotes): 5.35 ± 0.27 µM
T. cruzi epimastigotes SI (T. cruzi epimastigotes): 64.2
CC50 at 72 h [3]: 169 ± 29.8 µM

COc1ccc(CNCCNCc2ccc(OC)c(O)c2)cc1O [5d]
IC50 [1]: 40.2 ± 5.21 µM
L. (L) infantum promastigotes SI [1]: >7.48
CC50 at 72 h [2]: > 300 µM
IC50 (T. cruzi epimastigotes): 0.88 ± 0.06 µM
CC50 at 72 h [3]: > 300 µM

COc1ccc(CNCCCCNCc2ccc(OC)c(O)c2)cc1O [5e]
IC50 [1]: > 250 µM
CC50 at 72 h [2]: > 250 µM
IC50 (T. cruzi epimastigotes): 1.22 ± 0.08 µM
CC50 at 72 h [3]: 248 µM

c1cc(CNCCNCc2ccncc2)ccn1 [5h]
IC50 [1]: 181 ± 1.89 µM
L. (L) infantum promastigotes SI [1]: >2.28
CC50 at 72 h [2]: 356 ± 37.1 µM
IC50 (T. cruzi epimastigotes): > 250 µM
T. cruzi epimastigotes SI (T. cruzi epimastigotes): >0.86
CC50 at 72 h [3]: > 413 µM

c1ccc(CNCCCCNCc2ccccn2)nc1 [5i]
IC50 [1]: 28.8 ± 5.14 µM
L. (L) infantum promastigotes SI [1]: >12.82
CC50 at 72 h [2]: 132 ± 12.3 µM
IC50 (T. cruzi epimastigotes): > 250 µM
T. cruzi epimastigotes SI (T. cruzi epimastigotes): >0.35
CC50 at 72 h [3]: > 300 µM

c1cncc(CNCCCCNCc2cccnc2)c1 [5j]
IC50 [1]: 44.2 ± 10.5 µM
L. (L) infantum promastigotes SI [1]: >8.36
CC50 at 72 h [2]: > 300 µM
IC50 (T. cruzi epimastigotes): > 250 µM
T. cruzi epimastigotes SI (T. cruzi epimastigotes): >1
CC50 at 72 h [3]: > 300 µM

O=C1CSC(c2ccccc2)N1CCN1C(=O)CSC1c1ccccc1 (stereo not drawn) [6a]
IC50 [1]: 136 ± 6.96 µM
L. (L) infantum promastigotes SI [1]: >1.91
CC50 at 72 h [2]: 171 ± 3.77 µM
IC50 (T. cruzi epimastigotes): 237 ± 12.1 µM
T. cruzi epimastigotes SI (T. cruzi epimastigotes): 0.72
CC50 at 72 h [3]: > 250 µM

O=C1CSC(c2ccccc2)N1CCCCN1C(=O)CSC1c1ccccc1 (stereo not drawn) [6c]
IC50 [1]: > 250 µM
L. (L) infantum promastigotes SI [1]: >1.0
CC50 at 72 h [2]: > 250 µM
IC50 (T. cruzi epimastigotes): > 250 µM
T. cruzi epimastigotes SI (T. cruzi epimastigotes): >1.01
CC50 at 72 h [3]: > 250 µM

O=C1CSC(c2ccccn2)N1CCN1C(=O)CSC1c1ccccn1 (stereo not drawn) [6f]
IC50 [1]: 176 ± 16 µM
L. (L) infantum promastigotes SI [1]: >1.46
CC50 at 72 h [2]: > 250 µM
IC50 (T. cruzi epimastigotes): 161 ± 5.58 µM
T. cruzi epimastigotes SI (T. cruzi epimastigotes): >1.60
CC50 at 72 h [3]: > 250 µM

O=C1CSC(c2cccnc2)N1CCN1C(=O)CSC1c1cccnc1 (stereo not drawn) [6g]
IC50 [1]: > 250 µM
L. (L) infantum promastigotes SI [1]: >1.0
CC50 at 72 h [2]: > 250 µM
IC50 (T. cruzi epimastigotes): > 250 µM
T. cruzi epimastigotes SI (T. cruzi epimastigotes): >1.0
CC50 at 72 h [3]: > 250 µM

O=C1CSC(c2ccncc2)N1CCN1C(=O)CSC1c1ccncc1 (stereo not drawn) [6h]
IC50 [1]: > 250 µM
L. (L) infantum promastigotes SI [1]: >1.0
CC50 at 72 h [2]: > 250 µM
IC50 (T. cruzi epimastigotes): > 250 µM
T. cruzi epimastigotes SI (T. cruzi epimastigotes): >1.0
CC50 at 72 h [3]: > 250 µM

O=C1CSC(c2ccccn2)N1CCCCN1C(=O)CSC1c1ccccn1 (stereo not drawn) [6i]
IC50 [1]: > 250 µM
L. (L) infantum promastigotes SI [1]: >1.0
CC50 at 72 h [2]: > 250 µM
IC50 (T. cruzi epimastigotes): > 250 µM
T. cruzi epimastigotes SI (T. cruzi epimastigotes): >1.0
CC50 at 72 h [3]: > 250 µM

O=C1CSC(c2cccnc2)N1CCCCN1C(=O)CSC1c1cccnc1 (stereo not drawn) [6j]
IC50 [1]: > 250 µM
L. (L) infantum promastigotes SI [1]: >1.0
CC50 at 72 h [2]: 75.4 ± 1.8 µM
IC50 (T. cruzi epimastigotes): 235 ± 3.06 µM
T. cruzi epimastigotes SI (T. cruzi epimastigotes): 0.32
CC50 at 72 h [3]: > 250 µM

O=C1CSC(c2ccncc2)N1CCCCN1C(=O)CSC1c1ccncc1 (stereo not drawn) [6k]
IC50 [1]: > 250 µM
L. (L) infantum promastigotes SI [1]: >1.0
CC50 at 72 h [2]: > 250 µM
IC50 (T. cruzi epimastigotes): > 250 µM
T. cruzi epimastigotes SI (T. cruzi epimastigotes): >1.0
CC50 at 72 h [3]: > 250 µM

O=C(CCl)NCCCNC(=O)CCl [7b]
IC50 [1]: 76.4 ± 1.05 µM
L. (L) infantum promastigotes SI [1]: 2.07
CC50 at 72 h [2]: 32.7 ± 6.56 µM
IC50 (T. cruzi epimastigotes): 1.01 ± 0.13 µM
T. cruzi epimastigotes SI (T. cruzi epimastigotes): 32.35
CC50 at 72 h [3]: 158 ± 4.53 µM

C[C@@H]1[C@H](O)[C@@H](C)/C=C/C=C/C=C/C=C/C=C/C=C/C=C/[C@H](O[C@@H]2O[C@H](C)[C@@H](O)[C@H](N)[C@@H]2O)C[C@@H]2O[C@](O)(C[C@@H](O)C[C@@H](O)[C@H](O)CC[C@@H](O)C[C@@H](O)CC(=O)O[C@H]1C)C[C@H](O)[C@H]2C(=O)O [AmB, Amphotericin B, reference compound]
IC50 [1]: 0.014 ± 0.001 µM
L. (L) infantum promastigotes SI [1]: 948.57
CC50 at 72 h [3]: 13.3 ± 1.72 µM
IC90 ([4]; THP-1 macrophages, 72 h): 0.2 ± 0.002 µM
IC50 ([4]; THP-1 macrophages, 72 h, 78.3% cells infected before treatment): 0.032 ± 0.002 µM
L.(V.) panamensis intracellular amastigotes SI ([4]; selectivity index CC50/IC50): 420
IC90 ([5]; Leishmania amazonensis, THP-1 macrophages, 72 h): 0.2 ± 0.002 µM
IC50 ([5]; Leishmania amazonensis, THP-1 macrophages, 72 h, 58.6% cells infected before treatment): 0.082 ± 0.002 µM
L. (L.) amazonensis intracellular amastigotes SI ([5]; selectivity index CC50/IC50): 616
IC90 ([6]; Leishmania infantum, THP-1 macrophages, 72 h): 0.138 ± 0.023 µM
IC50 ([6]; Leishmania infantum, THP-1 macrophages, 72 h, 48.58% cells infected before treatment): 0.045 ± 0.007 µM
L. (L.) infantum intracellular amastigotes SI ([6]; selectivity index CC50/IC50): 360

CC1CS(=O)(=O)CCN1/N=C/c1ccc([N+](=O)[O-])o1 (stereo not drawn) [Nif, Nifurtimox, reference compound]
CC50 at 72 h [2]: 76.5 ± 3.2 µM
IC50 (T. cruzi epimastigotes): 2.71 ± 0.05 µM
T. cruzi epimastigotes SI (T. cruzi epimastigotes): 28.23
IC90 ([7]; Trypanosoma cruzi, Vero cells, 72 h): 10.2 ± 1.6 µM
IC50 ([7]; Trypanosoma cruzi, Vero cells, 72 h, 98.1% cells infected before treatment): 2.34 ± 0.83 µM
T. cruzi intracellular amastigotes SI ([7]; selectivity index CC50/IC50): 55

— article PMC3617668, “In Vitro Antileishmanial, Trypanocidal, and Mammalian Cell Activities of Diverse N,N′ -Dihetaryl Substituted Diamines and Related Compounds” (Scientia Pharmaceutica, 2012)
